Laboratory results reported in PMC12736120, “First-in-Human Phase I Clinical Trial of SLC-391, a Novel and Selective AXL Inhibitor, in Patients with Advanced Solid Tumours” (Pharmaceuticals, 2025).

Assay: Phase I safety and tolerability (DLTs, adverse events, laboratory, ECG)
Type: in vivo
Conditions: for dose-limiting toxicity (DLT): one subject; for Any treatment-related adverse event (TRAE) / TRAE: Decreased appetite / TRAE: Diarrhoea / TRAE: Dysgeusia / TRAE: Fatigue / TRAE: Gastrointestinal disorders / TRAE: General disorders and administration site conditions / TRAE: Metabolism and nutrition disorders / TRAE: Nausea / TRAE: Nervous system disorders / TRAE: Vomiting: Definitely related; for Any treatment-emergent adverse event (TEAE) / TEAE: Abdominal distension / TEAE: Abdominal pain / TEAE: Back pain / TEAE: Blood and lymphatic system disorders / TEAE: Chills / TEAE: Constipation / TEAE: Cough / TEAE: Decreased appetite / TEAE: Diarrhoea / TEAE: Dizziness / TEAE: Dysgeusia / TEAE: Dyspnoea / TEAE: Fatigue / TEAE: Gastrointestinal disorders / TEAE: General disorders and administration site conditions / TEAE: Haematuria / TEAE: Headache / TEAE: Infections and infestations / TEAE: Investigations / TEAE: Metabolism and nutrition disorders / TEAE: Musculoskeletal and connective tissue disorders / TEAE: Nausea / TEAE: Nervous system disorders / TEAE: Oedema peripheral / TEAE: Psychiatric disorders / TEAE: Pyrexia / TEAE: Renal and urinary disorders / TEAE: Respiratory, thoracic, and mediastinal disorders / TEAE: Skin and subcutaneous tissue disorders / TEAE: Vomiting / TEAE: Weight decreased: Grade 1
Procedure: This study employed a standard 3 + 3 dose escalation design with a starting dose of 25 mg QD. […] Dose escalation decisions took into account all available data from evaluable subjects as well as PK and the safety profile of prior dose cohorts. […] There was a minimum 5-day stagger between dosing of the first and second subjects in each dose cohort. Dose escalation decisions were made by a data review committee (DRC) composed of, at minimum, the medical monitor, at least one principal investigator, and a sponsor representative, per the study DRC Plan. Dose escalation could continue until 2 or more subjects in the same dose cohort experienced a dose-limiting toxicity (DLT). DLTs were defined as Grade 3 or 4 adverse drug reactions (ADRs), with grades as defined in the National Cancer Institute Common Toxicity Criteria for Adverse Events (NCI-CTCAE) version 5.0. […] The MTD was defined as the highest dose at which no more than 1 of 6 subjects experienced a DLT during cycle 1 of the study drug. The MTD would have been exceeded if 2 or more subjects in a dose cohort of up to 6 subjects experienced a DLT. Subjects could continue treatment until disease progression, unacceptable toxicity, death, withdrawal of consent, or loss to follow-up.
Before enrolment in the study, all patients received a detailed medical history and physical examination. Clinical laboratory evaluations included clinical chemistry, complete blood count, urinalysis, coagulation factors, and a lipid panel. Other safety assessments included vital signs, physical examination, electrocardiogram, and echocardiogram with multigated acquisition (ECHO/MUGA). Safety assessments were performed on days 1, 8, 15, and 21 of cycle 1, and on day 1 of cycles 2 to 6.

SMILES: Nc1ncc(-c2cnn(C3CCNCC3)c2)cc1-c1nnc(CC2CC2)o1 [SLC-391, 3-(5-[cyclopropylmethyl]-1,3,4-oxadiazol-2-yl)-5-(1-[piperidin-4-yl]-1H-pyrazol-4-yl)-pyridin-2-amine]
- subjects with SAEs (110 mg BID (1/3)): 33.3%
- TEAEs leading to drug withdrawal or study discontinuation (150 mg BID): 16.7%
- subjects reporting Grade 3 TEAEs (150 mg BID): 50.0%
- DLTs and SAEs (150 mg BID (N = 6)): no DLTs or SAEs
- subjects reporting constipation (150 mg BID (N = 6)): 66.7%
- subjects reporting diarrhoea (150 mg BID (N = 6)): 66.7%
- subjects reporting dyspnoea (150 mg BID (N = 6)): 50.0%
- subjects reporting fatigue (150 mg BID (N = 6)): 83.3%
- subjects reporting nausea (150 mg BID (N = 6)): 83.3%
- subjects with SAEs (150 mg QD (3/6)): 50%
- subjects with SAEs (175 mg QD (1/2)): 50%
- dose-limiting toxicity (DLT) (175 mg QD (N = 2), SUSAR): Grade 3 haematochezia
- TEAEs leading to drug withdrawal or study discontinuation (200 mg BID): 66.7%
- subjects reporting Grade 3 TEAEs (200 mg BID): 66.7%
- subjects reporting constipation (200 mg BID (N = 3)): 66.7%
- subjects reporting decreased appetite (200 mg BID (N = 3)): 66.7%
- subjects reporting diarrhoea (200 mg BID (N = 3)): 66.7%
- subjects reporting dysgeusia (200 mg BID (N = 3)): 66.7%
- subjects reporting fatigue (200 mg BID (N = 3)): 66.7%
- subjects reporting headache (200 mg BID (N = 3)): 66.7%
- subjects reporting nausea (200 mg BID (N = 3)): 100.0%
- dose-limiting toxicity (DLT) (200 mg BID): Grade 3 thrombocytopenia associated with Grade 1 haematuria
- subjects with interrupted dosing who continued at a reduced dose (2/9 subjects): 22.2%
- maximum tolerated dose (MTD) (25-175 mg QD, 75-200 mg BID, 21-day cycles): not reached
- SAEs, subjects (BID cohorts): 6.7%
- TEAEs leading to treatment interruption or missed dose (BID cohorts): 40.0%
- TEAEs leading to treatment or study discontinuation, subjects (BID cohorts): 20.0%
- subjects with Grade 3 TEAEs (BID cohorts): 40.0%
- subjects with TRAEs (BID cohorts): 86.7%
- subjects with at least one TEAE (BID cohorts): 100.0%
- Any treatment-related adverse event (TRAE) (Overall BID (N = 15)): 5 (33.3%) n (%)
- TRAE: Decreased appetite (Overall BID (N = 15)): 2 (13.3%) n (%)
- TRAE: Diarrhoea (Overall BID (N = 15)): 2 (13.3%) n (%)
- TRAE: Dysgeusia (Overall BID (N = 15)): 1 (6.7%) n (%)
- TRAE: Fatigue (Overall BID (N = 15)): 1 (6.7%) n (%)
- TRAE: Gastrointestinal disorders (Overall BID (N = 15)): 5 (33.3%) n (%)
- TRAE: General disorders and administration site conditions (Overall BID (N = 15)): 1 (6.7%) n (%)
- TRAE: Metabolism and nutrition disorders (Overall BID (N = 15)): 2 (13.3%) n (%)
- TRAE: Nausea (Overall BID (N = 15)): 4 (26.7%) n (%)
- TRAE: Nervous system disorders (Overall BID (N = 15)): 1 (6.7%) n (%)
- TRAE: Vomiting (Overall BID (N = 15)): 3 (20.0%) n (%)
- Any treatment-related adverse event (TRAE) (Overall QD (N = 20)): 7 (35.0%) n (%)
- TRAE: Decreased appetite (Overall QD (N = 20)): 2 (10.0%) n (%)
- TRAE: Diarrhoea (Overall QD (N = 20)): 5 (25.0%) n (%)
- TRAE: Dysgeusia (Overall QD (N = 20)): 1 (5.0%) n (%)
- TRAE: Fatigue (Overall QD (N = 20)): 3 (15.0%) n (%)
- TRAE: Gastrointestinal disorders (Overall QD (N = 20)): 6 (30.0%) n (%)
- TRAE: General disorders and administration site conditions (Overall QD (N = 20)): 3 (15.0%) n (%)
- TRAE: Metabolism and nutrition disorders (Overall QD (N = 20)): 2 (10.0%) n (%)
- TRAE: Nausea (Overall QD (N = 20)): 4 (20.0%) n (%)
- TRAE: Nervous system disorders (Overall QD (N = 20)): 1 (5.0%) n (%)
- TRAE: Vomiting (Overall QD (N = 20)): 5 (25.0%) n (%)
- Any treatment-related adverse event (TRAE) (Overall Study (N = 35)): 12 (34.3%) n (%)
- TRAE: Decreased appetite (Overall Study (N = 35)): 4 (11.4%) n (%)
- TRAE: Diarrhoea (Overall Study (N = 35)): 7 (20.0%) n (%)
- TRAE: Dysgeusia (Overall Study (N = 35)): 2 (5.7%) n (%)
- TRAE: Fatigue (Overall Study (N = 35)): 4 (11.4%) n (%)
- TRAE: Gastrointestinal disorders (Overall Study (N = 35)): 11 (31.4%) n (%)
- TRAE: General disorders and administration site conditions (Overall Study (N = 35)): 4 (11.4%) n (%)
- TRAE: Metabolism and nutrition disorders (Overall Study (N = 35)): 4 (11.4%) n (%)
- TRAE: Nausea (Overall Study (N = 35)): 8 (22.9%) n (%)
- TRAE: Nervous system disorders (Overall Study (N = 35)): 2 (5.7%) n (%)
- TRAE: Vomiting (Overall Study (N = 35)): 8 (22.9%) n (%)
- Any treatment-emergent adverse event (TEAE) (Overall BID (N = 15)): 2 (13.3) n (%)
- TEAE: Abdominal distension (Overall BID (N = 15)): 2 (13.3) n (%)
- TEAE: Abdominal pain (Overall BID (N = 15)): 0 n (%)
- TEAE: Back pain (Overall BID (N = 15)): 0 n (%)
- TEAE: Blood and lymphatic system disorders (Overall BID (N = 15)): 1 (6.7) n (%)
- TEAE: Chills (Overall BID (N = 15)): 4 (26.7) n (%)
- TEAE: Constipation (Overall BID (N = 15)): 5 (33.3) n (%)
- TEAE: Cough (Overall BID (N = 15)): 2 (13.3) n (%)
- TEAE: Decreased appetite (Overall BID (N = 15)): 1 (6.7) n (%)
- TEAE: Diarrhoea (Overall BID (N = 15)): 6 (40.0) n (%)
- TEAE: Dizziness (Overall BID (N = 15)): 0 n (%)
- TEAE: Dysgeusia (Overall BID (N = 15)): 0 n (%)
- TEAE: Dyspnoea (Overall BID (N = 15)): 0 n (%)
- TEAE: Fatigue (Overall BID (N = 15)): 4 (26.7) n (%)
- TEAE: Gastrointestinal disorders (Overall BID (N = 15)): 7 (46.7) n (%)
- TEAE: General disorders and administration site conditions (Overall BID (N = 15)): 5 (33.3) n (%)
- TEAE: Haematuria (Overall BID (N = 15)): 3 (20.0) n (%)
- TEAE: Headache (Overall BID (N = 15)): 3 (20.0) n (%)
- TEAE: Infections and infestations (Overall BID (N = 15)): 1 (6.7) n (%)
- TEAE: Investigations (Overall BID (N = 15)): 2 (13.3) n (%)
- TEAE: Metabolism and nutrition disorders (Overall BID (N = 15)): 0 n (%)
- TEAE: Musculoskeletal and connective tissue disorders (Overall BID (N = 15)): 2 (13.3) n (%)
- TEAE: Nausea (Overall BID (N = 15)): 7 (46.7) n (%)
- TEAE: Nervous system disorders (Overall BID (N = 15)): 3 (20.0) n (%)
- TEAE: Oedema peripheral (Overall BID (N = 15)): 1 (6.7) n (%)
- TEAE: Psychiatric disorders (Overall BID (N = 15)): 1 (6.7) n (%)
- TEAE: Pyrexia (Overall BID (N = 15)): 2 (13.3) n (%)
- TEAE: Renal and urinary disorders (Overall BID (N = 15)): 3 (20.0) n (%)
- TEAE: Respiratory, thoracic, and mediastinal disorders (Overall BID (N = 15)): 2 (13.3) n (%)
- TEAE: Skin and subcutaneous tissue disorders (Overall BID (N = 15)): 2 (13.3) n (%)
- TEAE: Vomiting (Overall BID (N = 15)): 5 (33.3) n (%)
- TEAE: Weight decreased (Overall BID (N = 15)): 2 (13.3) n (%)
- Any treatment-emergent adverse event (TEAE) (Overall QD (N = 20)): 1 (5.0) n (%)
- TEAE: Abdominal distension (Overall QD (N = 20)): 2 (10.0) n (%)
- TEAE: Abdominal pain (Overall QD (N = 20)): 4 (20.0) n (%)
- TEAE: Back pain (Overall QD (N = 20)): 1 (5.0) n (%)
- TEAE: Blood and lymphatic system disorders (Overall QD (N = 20)): 0 n (%)
- TEAE: Chills (Overall QD (N = 20)): 2 (10.0) n (%)
- TEAE: Constipation (Overall QD (N = 20)): 5 (25.0) n (%)
- TEAE: Cough (Overall QD (N = 20)): 4 (20.0) n (%)
- TEAE: Decreased appetite (Overall QD (N = 20)): 6 (30.0) n (%)
- TEAE: Diarrhoea (Overall QD (N = 20)): 8 (40.0) n (%)
- TEAE: Dizziness (Overall QD (N = 20)): 4 (20.0) n (%)
- TEAE: Dysgeusia (Overall QD (N = 20)): 1 (5.0) n (%)
- TEAE: Dyspnoea (Overall QD (N = 20)): 2 (10.0) n (%)
- TEAE: Fatigue (Overall QD (N = 20)): 6 (30.0) n (%)
- TEAE: Gastrointestinal disorders (Overall QD (N = 20)): 8 (40.0) n (%)
- TEAE: General disorders and administration site conditions (Overall QD (N = 20)): 7 (35.0) n (%)
- TEAE: Haematuria (Overall QD (N = 20)): 1 (5.0) n (%)
- TEAE: Headache (Overall QD (N = 20)): 2 (10.0) n (%)
- TEAE: Infections and infestations (Overall QD (N = 20)): 0 n (%)
- TEAE: Investigations (Overall QD (N = 20)): 5 (25.0) n (%)
- TEAE: Metabolism and nutrition disorders (Overall QD (N = 20)): 5 (25.0) n (%)
- TEAE: Musculoskeletal and connective tissue disorders (Overall QD (N = 20)): 5 (25.0) n (%)
- TEAE: Nausea (Overall QD (N = 20)): 8 (40.0) n (%)
- TEAE: Nervous system disorders (Overall QD (N = 20)): 8 (40.0) n (%)
- TEAE: Oedema peripheral (Overall QD (N = 20)): 2 (10.0) n (%)
- TEAE: Psychiatric disorders (Overall QD (N = 20)): 2 (10.0) n (%)
- TEAE: Pyrexia (Overall QD (N = 20)): 2 (10.0) n (%)
- TEAE: Renal and urinary disorders (Overall QD (N = 20)): 0 n (%)
- TEAE: Respiratory, thoracic, and mediastinal disorders (Overall QD (N = 20)): 3 (15.0) n (%)
- TEAE: Skin and subcutaneous tissue disorders (Overall QD (N = 20)): 4 (20.0) n (%)
- TEAE: Vomiting (Overall QD (N = 20)): 8 (40.0) n (%)
- TEAE: Weight decreased (Overall QD (N = 20)): 4 (20.0) n (%)
- Any treatment-emergent adverse event (TEAE) (Overall Study (N = 35)): 3 (8.6) n (%)
